PubChem BioAssay AID1963840 (Molecular Pharmacology Branch, DTP, NCI, 2024)

Tested on: 695427-040-R-J1-PDC complex spheroid viability
Assay: Anticancer human tumor 695427-040-R-J1-PDC patient-derived colon adenocarcinoma cell line growth inhibition [POLQ]
Details: for IC50: curve of first compound; for viability, T/C: stronger effect = lower value
Method: Multicellular complex tumor spheroid response to Polymerase (POL) inhibitors (novobiocin, ART-558, RP6685) in combination with a variety of drugs and investigational agents in selected tumor cell lines
The POL inhibitors (novobiocin, ART-558, and RP6685) were evaluated both individually and in combination with standard of care and investigational anticancer small molecules within a complex spheroid model of solid tumors. . Complex spheroids include a stromal component modeled by human endothelial cells (HUVEC) and fibroblasts modeled by human mesenchymal stem cells (MSCs). The concentration ranges selected for each drug and investigational agent were based upon clinically achievable concentrations if the clinical Cmax of the agent was known.
Compounds. The drugs and investigational agents: novobiocin (NSC847541), ART-558 (NSC835418), RP-6685 (NSC848927), peposertib (NSC802822), ceralasertib (NSC780249), elimusertib (NSC800525), camonsertib (NSC841442), AZD-1390 (NSC803789), olaparib (NSC753686), talazoparib (NSC767125), rucaparib (NSC756644), sotorasib (NSC818433), MRTX-1133 (NSC836407), SN-38 (NSC673596), topotecan (NSC609699), epotoside (NSC141540), doxorubicin (NSC123127), gemcitabine (NSC613327), 5-fluorouracil (NSC19893), paclitaxel (NSC125973), vemurafenib (NSC761431), MSA-2 (NSC828583), SN-011 (NSC837082), adavosertib (NSC754352), prexasertib (NSC758257), carboplatin (NSC241240) and oxaliplatin (NSC266046), were obtained from the National Cancer Institute (NCI) Developmental Therapeutics Program Chemical Repository (21). The FDA-approved anticancer drug set is available from the Developmental Therapeutics Program at https://dtp.cancer.gov/organization/dscb/obtaining/. […] The stock solutions were prepared in dimethyl sulfoxide (DMSO, Sigma-Aldrich, St. Louis, MO, cat. D2650), except for the platinum compounds which were prepared in saline (Quality Biological, Gaithersburg, MD, cat. 114-055-101), at 800-fold the tested concentration and stored at -70 degrees C prior to their use. All drugs and investigational agents were tested over a range starting from a high concentration at or near the clinical Cmax and decreasing in half-log increments. If the clinical Cmax for an agent had not been determined, the highest concentration tested was 10 microM, except for SN-38, which was tested at a high concentration of 1 microM.
Cell Culture. All cells were maintained in an incubator at 37 degrees C and 5% CO2 with 95% humidity. The PDC lines were cultured according to standard operating procedures established by the NCI PDMR (https://pdmr.cancer.gov). Table 3 of the manuscript, lists the cell lines along with the number of the three cell types plated to form the mct-spheroids and media for tumor cell growth. After thawing, all PDC lines, except 997537-175-T-J1-PDC and 415267-285-R-J2-PDC, were cultured in Matrigel-coated flasks prepared with a working solution of 1X Ham's F-12 nutrient mix, without supplementation (Thermo Fisher Scientific, cat. 11765054), 100 U/mL penicillin-streptomycin (Thermo Fisher Scientific, cat. 15140122), and 2.5% Matrigel (Corning Inc., Corning, NY, cat. 354248) for the first three passages. The two PDC lines 997537-175-T-J1-PDC and 415267-285-R-J2-PDC were cultured on uncoated flasks. The 857933-349-R-J2-PDC line was cultured in 6C/Colon 1B media containing advanced DMEM/F-12 (Thermo Fisher Scientific, cat. 12634028), 10 mM HEPES (Thermo Fisher Scientific, cat. 15630080), 1X GlutaMAX supplement (Thermo Fisher Scientific, cat. 35050061), 0.1 mg/mL primocin (InvivoGen, San Diego, CA, cat. ant-pm-2), 10% defined fetal bovine serum, heat inactivated (HyClone Laboratories Inc., Logan, UT, cat. SH30070.03HI), 50% L-WRN conditioned media (ATCC, cat. CRL-3276), 1.25 mM N-Acetyl-L-cysteine (Sigma-Aldrich, cat. A9165), 10 mM nicotinamide (Sigma-Aldrich, cat. N0636), 1X B-27 supplement (Thermo Fisher Scientific, cat. 17504044), 1X N-2 supplement (Thermo Fisher Scientific, cat. […]

[1] = second compound 0.0316 µM, first compound 0.0316 µM
[2] = second compound 0.0316 µM, first compound 0.1 µM
[3] = second compound 0.0316 µM, first compound 0.316 µM
[4] = second compound 0.0316 µM, first compound 1 µM
[5] = second compound 0.1 µM, first compound 0.0316 µM
[6] = second compound 0.1 µM, first compound 0.1 µM
[7] = second compound 0.1 µM, first compound 0.316 µM
[8] = second compound 0.1 µM, first compound 1 µM
[9] = second compound 0.316 µM, first compound 0.0316 µM
[10] = second compound 0.316 µM, first compound 0.1 µM
[11] = second compound 0.316 µM, first compound 0.316 µM
[12] = second compound 0.316 µM, first compound 1 µM
[13] = second compound 1 µM, first compound 0.0316 µM
[14] = second compound 1 µM, first compound 0.1 µM
[15] = second compound 1 µM, first compound 0.316 µM
[16] = second compound 1 µM, first compound 1 µM
[17] = second compound 3.16 µM, first compound 0.0316 µM
[18] = second compound 3.16 µM, first compound 0.1 µM
[19] = second compound 3.16 µM, first compound 0.316 µM
[20] = second compound 3.16 µM, first compound 1 µM
[21] = second compound 10 µM, first compound 0.0316 µM
[22] = second compound 10 µM, first compound 0.1 µM
[23] = second compound 10 µM, first compound 0.316 µM
[24] = second compound 10 µM, first compound 1 µM
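Note: spheroids exposed to compounds for seven days.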
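Throughout, for viability, T/C: 100% = DMSO vehicle control viability.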

## COc1cccc(OCCCN)c1-c1cc(Nc2cnc(C#N)cn2)n[nH]1 + Nc1ccc(C#CCN(C(=O)Cc2ncc(C(F)(F)F)cc2C(F)(F)F)c2ccc(F)cc2)nn1
Second compound 0.0316 µM
  IC50: > 1000 nM
Second compound 0.1 µM
  IC50: > 1000 nM
Second compound 0.316 µM
  IC50: > 1000 nM
Second compound 1 µM
  IC50: > 1000 nM
Second compound 3.16 µM
  IC50: > 1000 nM
Second compound 10 µM
  IC50: 252 nM
Second compound 0.0316 µM, first compound 0.00316 µM
  viability, T/C: 106%
Second compound 0.0316 µM, first compound 0.01 µM
  viability, T/C: 99.7%
[1]
  viability, T/C: 94.4%
[2]
  viability, T/C: 82.8%
[3]
  viability, T/C: 68.8%
[4]
  viability, T/C: 53.5%
Second compound 0.1 µM, first compound 0.00316 µM
  viability, T/C: 115%
Second compound 0.1 µM, first compound 0.01 µM
  viability, T/C: 94.1%
[5]
  viability, T/C: 88.7%
[6]
  viability, T/C: 85.7%
[7]
  viability, T/C: 66.3%
[8]
  viability, T/C: 51.9%
Second compound 0.316 µM, first compound 0.00316 µM
  viability, T/C: 104%
Second compound 0.316 µM, first compound 0.01 µM
  viability, T/C: 101%
[9]
  viability, T/C: 80.9%
[10]
  viability, T/C: 82.1%
[11]
  viability, T/C: 73.6%
[12]
  viability, T/C: 49.7%
Second compound 1 µM, first compound 0.00316 µM
  viability, T/C: 105%
Second compound 1 µM, first compound 0.01 µM
  viability, T/C: 94.2%
[13]
  viability, T/C: 91.6%
[14]
  viability, T/C: 85.4%
[15]
  viability, T/C: 70.3%
[16]
  viability, T/C: 50.7%
Second compound 3.16 µM, first compound 0.00316 µM
  viability, T/C: 95.3%
Second compound 3.16 µM, first compound 0.01 µM
  viability, T/C: 90.1%
[17]
  viability, T/C: 80%
[18]
  viability, T/C: 69%
[19]
  viability, T/C: 59.4%
[20]
  viability, T/C: 50.2%
Second compound 10 µM, first compound 0.00316 µM
  viability, T/C: 95.8%
Second compound 10 µM, first compound 0.01 µM
  viability, T/C: 86.2%
[21]
  viability, T/C: 69.7%
[22]
  viability, T/C: 59%
[23]
  viability, T/C: 46.6%
[24]
  viability, T/C: 44.3%

## O=C(Nc1ccc(O)c(NS(=O)(=O)c2ccc(F)cc2)c1)c1ccc(-c2ccccc2)cc1 + Nc1ccc(C#CCN(C(=O)Cc2ncc(C(F)(F)F)cc2C(F)(F)F)c2ccc(F)cc2)nn1
Second compound 0.0316 µM
  IC50: > 10000 nM
Second compound 0.1 µM
  IC50: > 10000 nM
Second compound 0.316 µM
  IC50: > 10000 nM
Second compound 1 µM
  IC50: > 10000 nM
Second compound 3.16 µM
  IC50: > 10000 nM
Second compound 10 µM
  IC50: > 10000 nM
[1]
  viability, T/C: 108%
[2]
  viability, T/C: 107%
[3]
  viability, T/C: 105%
[4]
  viability, T/C: 107%
Second compound 0.0316 µM, first compound 3.16 µM
  viability, T/C: 109%
Second compound 0.0316 µM, first compound 10 µM
  viability, T/C: 91.9%
[5]
  viability, T/C: 112%
[6]
  viability, T/C: 105%
[7]
  viability, T/C: 92.8%
[8]
  viability, T/C: 104%
Second compound 0.1 µM, first compound 3.16 µM
  viability, T/C: 104%
Second compound 0.1 µM, first compound 10 µM
  viability, T/C: 97.3%
[9]
  viability, T/C: 106%
[10]
  viability, T/C: 106%
[11]
  viability, T/C: 99.8%
[12]
  viability, T/C: 101%
Second compound 0.316 µM, first compound 3.16 µM
  viability, T/C: 108%
Second compound 0.316 µM, first compound 10 µM
  viability, T/C: 87.4%
[13]
  viability, T/C: 112%
[14]
  viability, T/C: 97.4%
[15]
  viability, T/C: 99.1%
[16]
  viability, T/C: 105%
Second compound 1 µM, first compound 3.16 µM
  viability, T/C: 119%
Second compound 1 µM, first compound 10 µM
  viability, T/C: 80.2%
[17]
  viability, T/C: 108%
[18]
  viability, T/C: 104%
[19]
  viability, T/C: 99.2%
[20]
  viability, T/C: 109%
Second compound 3.16 µM, first compound 3.16 µM
  viability, T/C: 112%
Second compound 3.16 µM, first compound 10 µM
  viability, T/C: 112%
[21]
  viability, T/C: 99%
[22]
  viability, T/C: 94%
[23]
  viability, T/C: 104%
[24]
  viability, T/C: 94.7%
Second compound 10 µM, first compound 3.16 µM
  viability, T/C: 93.5%
Second compound 10 µM, first compound 10 µM
  viability, T/C: 88.1%
